Test results as given in US4481192A, “Acid-protease inhibiting peptide derivatives” (SANOFI, priority 1982, dated 1984).
Like-named read-outs stand apart in the source and are kept apart here. Non-standard residues stand in square brackets, D forms with d. Residues, ends and D or L forms follow the SMILES beside them. *: point of attachment. Sta = CC(C)C[C@H](N)[C@@H](O)CC(=O)O; Isovaleryl = CC(C)CC(=O)*; Cbz = O=C(OCc1ccccc1)*; Boc = CC(C)(C)OC(=O)*

What was measured:
Type in all cases: biochemical
[1] = molecular target: T1, human plasma renin activity (Homo sapiens, UniProt P00797); assay: Inhibition of the human plasma renin activity (P.R.A.); details: 37° C., pool of human plasma
T1 construct: the human plasma contain and the substrate: angiotensinogen, and the enzyme: renin; from tissue; host or cells: pool of human plasma
T1 sequence (P00797 67-406): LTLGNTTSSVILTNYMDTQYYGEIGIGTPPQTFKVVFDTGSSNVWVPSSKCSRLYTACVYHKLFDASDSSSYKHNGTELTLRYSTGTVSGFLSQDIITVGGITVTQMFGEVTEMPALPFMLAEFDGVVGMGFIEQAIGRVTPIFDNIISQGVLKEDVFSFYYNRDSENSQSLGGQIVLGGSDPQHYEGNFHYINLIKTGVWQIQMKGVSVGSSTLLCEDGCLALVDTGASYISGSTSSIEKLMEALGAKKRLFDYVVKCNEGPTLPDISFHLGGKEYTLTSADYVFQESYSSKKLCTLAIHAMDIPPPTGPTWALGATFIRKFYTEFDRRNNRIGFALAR
Experimental: The angiotensin I released during the reaction (the human plasma contain and the substrate: angiotensinogen, and the enzyme: renin) is measured by radioimmunological determination using a kit.
Of course, an inhibitor of the enzyme for conversion of the PMSF (phenylmethylsulphonyl fluoride) is added to the incubation medium.
Two types of experiments were carried out:
one at pH 6, which is the optimum pH for the enzyme reaction with human renin (maleate buffer, incubation: 30 minutes), and
the other at pH 7.4, which is the physiological pH (phosphate buffer, incubation: 60 minutes).
(§1) A 10^-3 M stock solution of the peptide is made up in a mixture containing equal volumes of a solution A (19 ml of methanol+1 ml of acetic acid) and a solution B (4 ml of methanol+2 ml of sodium hydroxide solution).
(§2) The subsequent dilutions of the peptide are then prepared in the appropriate buffer in accordance with the procedures described above.

porcine pepsin = porcine pepsin (Sus scrofa, UniProt P00791); assay: Inhibition of porcine pepsin; details: pH 2, substrate bovine haemoglobin, 37° C.
Chain of porcine pepsin (P00791 60-385): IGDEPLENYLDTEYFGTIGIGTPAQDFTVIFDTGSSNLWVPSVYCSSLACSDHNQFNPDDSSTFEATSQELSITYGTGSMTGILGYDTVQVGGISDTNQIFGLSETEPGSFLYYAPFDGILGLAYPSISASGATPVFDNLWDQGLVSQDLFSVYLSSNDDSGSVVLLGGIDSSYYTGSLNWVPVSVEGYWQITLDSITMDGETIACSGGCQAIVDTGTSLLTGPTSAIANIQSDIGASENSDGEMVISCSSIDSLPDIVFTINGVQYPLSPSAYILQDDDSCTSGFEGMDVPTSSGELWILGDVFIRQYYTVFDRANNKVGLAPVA
Experimental: The method used is that of TAKAAKI AOYAGI (J. Antibiotics, 24, pages 687-694, 1971). The substrate used is bovine haemoglobin and the enzyme is porcine pepsin.
0.5% strength haemoglobin is hydrolysed with pepsin (1 mcg/ml) at 37° C. in 0.02M KCl-HCl buffer at pH 2.
Preincubation takes place for 3 minutes, followed by incubation for 25 minutes. After precipitation of the proteins with 1.7M perchloric acid, the optical density of the supernatant is determined on a spectrophotometer at 280 nm.
The results are expressed as the percentage inhibition of the maximum optical density obtained in the absence of inhibitor. They are also expressed as an IC50.
as §1, §2

cathepsin D = molecular target: T2, cathepsin D (Bos taurus, UniProt P80209); assay: Enzyme inhibition of cathepsin D; details: pH 3.2, substrate bovine haemoglobin, 37° C., incubation 30 minutes
T2 construct: purchased SIGMA C 3138
T2 sequence (P80209 45-390): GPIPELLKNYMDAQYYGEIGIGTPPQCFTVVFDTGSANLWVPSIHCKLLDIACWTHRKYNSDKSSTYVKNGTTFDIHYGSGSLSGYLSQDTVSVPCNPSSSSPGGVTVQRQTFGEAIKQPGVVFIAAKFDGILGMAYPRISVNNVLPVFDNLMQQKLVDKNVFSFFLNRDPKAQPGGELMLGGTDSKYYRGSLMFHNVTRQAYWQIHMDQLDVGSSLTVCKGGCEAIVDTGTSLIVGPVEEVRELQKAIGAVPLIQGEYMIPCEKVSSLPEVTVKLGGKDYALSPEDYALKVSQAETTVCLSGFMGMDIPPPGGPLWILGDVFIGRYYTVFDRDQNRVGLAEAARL
Experimental: The method used is very similar to the pepsin method (T. AOYAGI, 1971).
The substrate used is bovine haemoglobin and the enzyme is cathepsin D of bovine origin (SIGMA, No.C 3138, batch 26 C-8100).
0.5% strength haemoglobin is hydrolysed with cathepsin D (200 μg/ml) at 37° C. in citrate-phosphate buffer at pH 3.2.
The substrate, the inhibitor and the enzyme are incubated for 30 minutes.
After precipitation of the proteins with 1.7M perchloric acid, the optical density of the supernatant is determined on a spectrophotometer at 280 nm.
The results are expressed as the percentage reduction in the maximum optical density obtained in the absence of inhibitor.
as §1, §2

[2] = pH 6, maleate buffer, incubation 30 minutes, read-out: INHIBITION OF HUMAN P.R.A. (IC50) pH 6
[3] = pH 7.4, phosphate buffer, incubation 60 minutes, read-out: INHIBITION OF HUMAN P.R.A. (IC50) pH 7.4

| Structure (SMILES) | IC50 [1, 2] [nM] | IC50 [1, 3] [nM] | IC50 (porcine pepsin) [nM] | IC50 (cathepsin D) [nM] |
| --- | --- | --- | --- | --- |
| COC(=O)C[C@H](O)[C@H](CC(C)C)NC(=O)[C@H](C)NC(=O)C[C@H](O)[C@H](CC(C)C)NC(=O)[C@H](Cc1ccccc1)NC(=O)[C@H](Cc1ccccc1)NC(=O)OC(C)(C)C [SR 41331, Boc--Phe--Phe--Sta--Ala--Sta--OMe] (Boc-FF[Sta]A[Sta]-OMe) | 3.5 | 190 | 14 | 180 |
| COC(=O)C[C@H](O)[C@H](CC(C)C)NC(=O)[C@H](C)NC(=O)C[C@H](O)[C@H](CC(C)C)NC(=O)[C@H](Cc1c[nH]c2ccccc12)NC(=O)[C@H](Cc1c[nH]c2ccccc12)NC(=O)OC(C)(C)C [SR 41376, Boc--Trp--Trp--Sta--Ala--Sta--OMe] (Boc-WW[Sta]A[Sta]-OMe) | – | – | 120 | 130 |
| COC(=O)C[C@H](O)[C@H](CC(C)C)NC(=O)[C@H](C)NC(=O)C[C@H](O)[C@H](CC(C)C)NC(=O)[C@H](Cc1c[nH]cn1)NC(=O)[C@H](Cc1ccccc1)NC(=O)OC(C)(C)C [SR 41395, Boc--Phe--His--Sta--Ala--Sta--OMe] (Boc-FH[Sta]A[Sta]-OMe) | – | – | 1300 | 870 |
| COC(=O)C[C@H](O)[C@H](CC(C)C)NC(=O)[C@H](C)NC(=O)C[C@H](O)[C@H](CC(C)C)NC(=O)[C@@H](NC(=O)[C@H](Cc1ccccc1)NC(=O)OCc1ccccc1)C(C)C [SR 41405, Z--Phe--Val--Sta--Ala--Sta--OMe] (Cbz-FV[Sta]A[Sta]-OMe) | – | – | 65 | 95 |
| COC(=O)C[C@H](O)[C@H](CC(C)C)NC(=O)[C@H](C)NC(=O)C[C@H](O)[C@H](CC(C)C)NC(=O)[C@@H](NC(=O)[C@H](Cc1c[nH]c2ccccc12)NC(=O)OCc1ccccc1)C(C)C [SR 41485, Z--Trp--Val--Sta--Ala--Sta--OMe] (Cbz-WV[Sta]A[Sta]-OMe) | 6.75 | 150 | 29 | 75 |
| CC(C)C[C@H](NC(=O)[C@H](C)NC(=O)C[C@H](O)[C@H](CC(C)C)NC(=O)[C@H](Cc1c[nH]cn1)NC(=O)[C@H](Cc1ccccc1)NC(=O)OC(C)(C)C)[C@@H](O)CC(=O)O [SR 41492, Boc--Phe--His--Sta--Ala--Sta--OH] (Boc-FH[Sta]A[Sta]-OH) | – | 45 | 550 | 700 |
| COC(=O)C[C@H](O)[C@H](CC(C)C)NC(=O)[C@H](C)NC(=O)C[C@H](O)[C@H](CC(C)C)NC(=O)[C@H](Cc1c[nH]cn1)NC(=O)[C@H](Cc1c[nH]c2ccccc12)NC(=O)OC(C)(C)C [SR 41619, Boc--Trp--His--Sta--Ala--Sta--OMe] (Boc-WH[Sta]A[Sta]-OMe) | – | – | – | 750 |
| COC(=O)C[C@H](O)[C@H](CC(C)C)NC(=O)[C@H](C)NC(=O)C[C@H](O)[C@H](CC(C)C)NC(=O)[C@H](C)NC(=O)[C@H](Cc1ccccc1)NC(=O)CC(C)C [SR 42258, iVa--Phe--Ala--Sta--Ala--Sta--OMe] (Isovaleryl-FA[Sta]A[Sta]-OMe) | 9 | 470 | 18 | – |
| COC(=O)C[C@H](O)[C@H](CC(C)C)NC(=O)[C@H](C)NC(=O)C[C@H](O)[C@H](CC(C)C)NC(=O)CNC(=O)[C@H](Cc1ccccc1)NC(=O)CC(C)C [SR 42261, iVa--Phe--Gly--Sta--Ala--Sta--OMe] (Isovaleryl-FG[Sta]A[Sta]-OMe) | 170 | 4700 | 750 | – |
